Columns and labels:
[1] = DRUGMATRIX: Calcium Channel Type L, Phenylalkylamine radioligand binding (ligand: [3H] (-)-Desmethoxyverapamil (D-888)); assay type: cell membranes, Rattus norvegicus, Wistar, Brain, Membrane; conditions: Not Active = under 50% inhibition at 10 µM
[2] = target: Prostaglandin G/H synthase 1 (Homo sapiens, UniProt P23219); assay: biochemical; assay type: tissue-based, Platelet; conditions: platelet;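 further: inhibition of COX-1 enzyme activity, with arachidonic acid supplied as substrate; in other assays of this panel Not Active means under 50% inhibition at 10 µM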
[3] = DRUGMATRIX: Sigma2 radioligand binding (ligand: [3H] Ifenprodil); assay type: cell membranes, Rattus norvegicus, Wistar, Brain, Membrane; conditions: Not Active = under 50% inhibition at 10 µM
[4] = target: T1, Calcitonin receptor (Homo sapiens, UniProt P30988); assay type: cell membranes, Membrane; conditions: t47d; further: in other assays of this panel Not Active means under 50% inhibition at 10 µM
T1 sequence (P30988 whole entry): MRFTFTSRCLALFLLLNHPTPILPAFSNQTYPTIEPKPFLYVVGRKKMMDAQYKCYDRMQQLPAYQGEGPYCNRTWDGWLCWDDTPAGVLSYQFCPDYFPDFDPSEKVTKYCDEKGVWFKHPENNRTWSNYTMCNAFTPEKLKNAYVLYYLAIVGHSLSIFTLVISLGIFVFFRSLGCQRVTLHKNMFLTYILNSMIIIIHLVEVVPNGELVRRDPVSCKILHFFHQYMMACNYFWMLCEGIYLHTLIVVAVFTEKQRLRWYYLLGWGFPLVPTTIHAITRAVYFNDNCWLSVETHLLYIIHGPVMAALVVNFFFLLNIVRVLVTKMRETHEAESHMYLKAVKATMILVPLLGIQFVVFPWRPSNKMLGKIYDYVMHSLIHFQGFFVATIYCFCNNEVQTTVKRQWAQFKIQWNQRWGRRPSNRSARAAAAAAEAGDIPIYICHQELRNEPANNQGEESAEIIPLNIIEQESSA

[5] = DRUGMATRIX: ATPase, Na+/K+ enzyme inhibition (substrate: ATP); assay type: tissue-based, Sus scrofa, Heart; conditions: Not Active = under 50% inhibition at 10 µM
[6] = target: T2, Cysteinyl leukotriene receptor 1 (Homo sapiens, UniProt Q9Y271); assay type: cell membranes, Membrane; conditions: cho-k1; further: in other assays of this panel Not Active means under 50% inhibition at 10 µM
T2 sequence (Q9Y271 whole entry): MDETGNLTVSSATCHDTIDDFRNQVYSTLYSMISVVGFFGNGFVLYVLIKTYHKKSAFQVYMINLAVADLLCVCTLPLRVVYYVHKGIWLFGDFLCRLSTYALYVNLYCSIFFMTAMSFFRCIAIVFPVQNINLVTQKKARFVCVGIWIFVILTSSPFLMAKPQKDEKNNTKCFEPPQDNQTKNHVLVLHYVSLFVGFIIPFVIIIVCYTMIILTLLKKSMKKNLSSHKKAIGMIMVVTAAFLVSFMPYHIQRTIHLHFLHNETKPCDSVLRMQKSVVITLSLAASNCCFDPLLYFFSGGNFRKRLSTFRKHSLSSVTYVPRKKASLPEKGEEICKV

[7] = target: Delta-type opioid receptor (Homo sapiens, UniProt P41143); assay type: cell membranes, HEK293, Membrane; conditions: hek293; further: in other assays of this panel Not Active means under 50% inhibition at 10 µM
Chain of Delta-type opioid receptor (P41143 whole entry): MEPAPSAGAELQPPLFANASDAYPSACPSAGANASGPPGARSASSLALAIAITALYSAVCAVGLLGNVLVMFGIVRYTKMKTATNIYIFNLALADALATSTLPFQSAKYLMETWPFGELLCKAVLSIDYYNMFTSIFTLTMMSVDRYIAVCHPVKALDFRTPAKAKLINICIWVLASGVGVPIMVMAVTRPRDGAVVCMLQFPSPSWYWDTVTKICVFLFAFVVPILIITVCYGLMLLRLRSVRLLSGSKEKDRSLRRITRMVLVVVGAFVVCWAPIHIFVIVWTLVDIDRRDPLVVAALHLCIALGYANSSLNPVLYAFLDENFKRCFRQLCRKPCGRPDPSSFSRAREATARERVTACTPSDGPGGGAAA

Chain of Prostaglandin G/H synthase 1 (P23219 whole entry): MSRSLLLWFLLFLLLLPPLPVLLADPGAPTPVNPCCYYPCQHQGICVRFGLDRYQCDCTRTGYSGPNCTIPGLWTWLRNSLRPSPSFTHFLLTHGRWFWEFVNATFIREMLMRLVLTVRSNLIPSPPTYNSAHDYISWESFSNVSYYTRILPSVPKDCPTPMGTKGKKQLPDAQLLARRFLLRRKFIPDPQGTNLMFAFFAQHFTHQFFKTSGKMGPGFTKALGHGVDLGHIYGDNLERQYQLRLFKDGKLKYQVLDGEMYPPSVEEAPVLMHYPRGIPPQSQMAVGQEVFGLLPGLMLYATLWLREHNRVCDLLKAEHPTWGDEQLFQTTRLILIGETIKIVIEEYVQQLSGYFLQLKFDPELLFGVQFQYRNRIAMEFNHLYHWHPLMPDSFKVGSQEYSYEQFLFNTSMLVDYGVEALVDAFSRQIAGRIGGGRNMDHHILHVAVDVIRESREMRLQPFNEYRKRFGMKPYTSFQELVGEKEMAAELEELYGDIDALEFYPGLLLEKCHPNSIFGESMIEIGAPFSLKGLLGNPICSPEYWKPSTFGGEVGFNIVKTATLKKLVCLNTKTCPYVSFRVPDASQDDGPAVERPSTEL

STANNOUS FLUORIDE
Not Active: IC50 [1] | Ki [1] | IC50 [2] | Ki [2] | IC50 [3] | Ki [3] | IC50 [4] | Ki [4] | IC50 [5] | Ki [5] | IC50 [6] | Ki [6] | IC50 [7] | Ki [7]

THIMEROSAL
Not Active: IC50 [1] | Ki [1] | IC50 [2] | Ki [2] | IC50 [3] | Ki [3] | IC50 [4] | Ki [4] | IC50 [5] | Ki [5] | IC50 [6] | Ki [6] | IC50 [7] | Ki [7]

Source: ChEMBL document CHEMBL1909046, “DrugMatrix in vitro pharmacology data”
